Source: US11447484B2, “Cyclic compound having dopamine D3 receptor antagonistic effect” (Shionogi & Co., Ltd., priority 2018, dated 2022)

Assays:
[1] = biological target: human recombinant D3 receptor (Homo sapiens (Human), UniProt P35462); experiment: Test of binding inhibition for dopamine D3 receptor; conditions: Jump-In HEK cell membranes, 2 nM [3H]-Methylspiperone, 120 min at 25° C.; read-out: hD3_Ki
Protocol: Test Example 1: Test of Binding Inhibition for Dopamine D3 Receptor
(§1) (Experimental Conditions)
Cell membranes: Jump-In HEK cell membranes expressing human recombinant D3 receptor (4 μg/well)
(§2) Buffer solution: 50 mM Tris-HCl (35409-45, Nacalai Tesque) (pH 7.4) containing 120 mM NaCl (31320-05, Nacalai Tesque), 1 mM MgCl2.6H2O (20909-55, Nacalai Tesque), 5 mM KCl (28514-75, Nacalai Tesque) and 2 mM CaCl2 (067-31, NAKARAI CHEMICALS, LTD.)
Radioligand: (final concentration) 2 nM [^3H]-Methylspiperone ([^3H—N-methyl-]-Methylspiperone, NET-856, 83.8 Ci/mmol, PerkinElmer)
Non-specific ligand: (final concentration) 10 μM Butaclamol [(+)-Butaclamol Hydrochloride, D033, Sigma]
(§3) SPA beads solution: SPA beads [WGA PVT SPA Scintillation Beads, RPNQ0001 (500 mg), RPNQ0060 (2 g), PerkinElmer] (0.2 mg/well)
(§4) Incubation time and temperature: 120 min at 25° C.
(§5) Butaclamol or the compounds of the present invention were weighed and DMSO was added to make a 10 mM solution. This solution was diluted to each concentration.
[^3H]-Methylspiperone was weighed and the buffer solution was added to make a 6 nM solution.
(§6) SPA beads were weighed and stirred in water to make a 50 mg/mL solution. Using this solution, a mixture with the cell membranes was prepared.
(§7) 225 nL of the solutions of the non-specific ligand or the compounds of the present invention at each concentration (in case of vehicle, final concentration 0.3% DMSO) were added in each well of a 384-well white/clear bottom microplate (3706, Corning). Jump-In HEK Cell membranes (final reaction amount: 4 μg protein/well), the SPA beads solution (final reaction amount: 0.2 mg/well) and the buffer solution were mixed and the mixed solution was left still for 1 hour or more at 4° C. Then, 50 μL of the mixture was added to each well of the plate. In addition, 25 μL of 6 nM [^3H]-Methylspiperone (final concentration: 2 nM) was added to each well. The plate was sealed by putting TopSeal-A 96/384 well (6050185, PerkinElmer, Inc.) on the top of the plate, mixed using stirring deaerator (Well Tornado, FK-62, Sakaki-elc.) and incubated for 120 min at 25° C. After incubation, the radioactivity of [^3H]-Methylspiperone which was bonded to D3 receptor was determined by liquid scintillation counter (1450 Microbeta, PerkinElmer) in each well. Non-specific binding was calculated based on the radioactivity of [^3H]-Methylspiperone in the presence of 10 μM non-labeled Butaclamol. The total binding was calculated using the radioactivity of [^3H]-Methylspiperone in the absence of the compounds of the present invention (vehicle). The Ki values were calculated from dose-response curves.
(§8) Binding activities of the compounds of the present invention were calculated from the following Binding Inhibition Rate (%): Inhibition Rate(%)=[1−(c−a)/(b−a)]×100 • a: Average cpm of non-specific binding • b: Average cpm of total binding • c: Cpm in the presence of each test compound

[2] = biological target: human recombinant D2 receptor (Homo sapiens (Human), UniProt P14416); experiment: Test of binding inhibition for dopamine D2 receptor; conditions: Jump-In HEK cell membranes, 1.2 nM [3H]-Methylspiperone, 120 min at 25° C.; read-out: hD2_Ki
Protocol: Test Example 2: Test of Binding Inhibition for Dopamine D2 Receptor
as §1
Cell membranes: Jump-In HEK cell membranes expressing human recombinant D2 receptor (2 μg/well)
as §2
Radioligand: (final concentration) 1.2 nM [^3H]-Methylspiperone ([^3H—N-methyl-]-Methylspiperone, NET-856, 83.8 Ci/mmol, PerkinElmer)
Non-specific ligand: (final concentration) 10 μM Butaclamol [(+)-Butaclamol Hydrochloride, D033; Sigma]
as §3, §4, §5
[^3H]-Methylspiperone was weighed and the buffer solution was added to make a 3.6 nM solution.
as §6
as §7, with “amount: 2” for “amount: 4”, “SPA bead” for “SPA beads”, “of 3.6” for “of 6”, “concentration: 1.2” for “concentration: 2”, “(6050185, PerkinElmer)” for “(6050185, PerkinElmer, Inc.)”, “to D2” for “to D3”
as §8

human recombinant D3 receptor, sequence (P35462 whole entry): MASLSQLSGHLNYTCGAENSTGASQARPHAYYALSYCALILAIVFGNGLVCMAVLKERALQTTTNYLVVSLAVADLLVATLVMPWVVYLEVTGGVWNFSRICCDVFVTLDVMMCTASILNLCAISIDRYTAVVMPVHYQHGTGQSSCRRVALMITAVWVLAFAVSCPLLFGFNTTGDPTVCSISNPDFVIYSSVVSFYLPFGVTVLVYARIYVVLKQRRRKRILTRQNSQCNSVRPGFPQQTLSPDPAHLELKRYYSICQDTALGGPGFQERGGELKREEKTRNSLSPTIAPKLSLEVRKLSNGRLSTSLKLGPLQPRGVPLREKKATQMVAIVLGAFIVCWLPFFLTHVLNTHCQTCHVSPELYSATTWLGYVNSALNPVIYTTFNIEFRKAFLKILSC
human recombinant D2 receptor, sequence (P14416 whole entry): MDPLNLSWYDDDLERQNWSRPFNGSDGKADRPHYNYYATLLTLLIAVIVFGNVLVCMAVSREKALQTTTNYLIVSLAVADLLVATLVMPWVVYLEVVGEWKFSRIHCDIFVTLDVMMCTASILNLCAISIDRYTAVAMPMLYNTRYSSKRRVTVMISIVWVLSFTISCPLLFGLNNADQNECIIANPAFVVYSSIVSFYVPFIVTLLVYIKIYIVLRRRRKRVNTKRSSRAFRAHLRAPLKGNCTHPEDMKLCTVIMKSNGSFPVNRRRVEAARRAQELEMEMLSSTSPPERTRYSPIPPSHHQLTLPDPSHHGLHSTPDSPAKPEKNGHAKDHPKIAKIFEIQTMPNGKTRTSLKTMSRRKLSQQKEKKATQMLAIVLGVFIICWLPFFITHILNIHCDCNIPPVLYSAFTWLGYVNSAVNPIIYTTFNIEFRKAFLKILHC

SMILES	Ki [1]	Ki [2]
Cc1ncc(CC(=O)N[C@H]2CC[C@H](CCN3C[C@@H]4C[C@]4(c4cc(C(C)(F)F)on4)C3)CC2)o1 [Compound I-041]	0.28 nM	240 nM
CC(=O)c1conc1C1=CCN(CC[C@H]2CC[C@H](NC(=O)c3cccc4nn(C)cc34)CC2)CC1 [Compound I-023]	0.69 nM	1700 nM
Cc1ncc(OCC(=O)N[C@H]2CC[C@H](CCN3C[C@@H]4C[C@]4(c4cc(C5CC5)on4)C3)CC2)cn1 [II-4]	0.45 nM	730 nM
Cn1cc2c(C(=O)N[C@H]3CC[C@H](CCN4CC5CC5(c5cc(C6CC6)on5)C4)CC3)cccc2n1 (some centres unmarked) [II-2]	0.2 nM	380 nM
CCc1cc([C@]23C[C@H]2CN(CC[C@H]2CC[C@H](NC(=O)COc4cnc(C)nc4)CC2)C3)no1 [Compound I-049]	0.44 nM	830 nM
CCC(F)(F)c1conc1C1(F)CCN(CC[C@H]2CC[C@H](NC(=O)Cc3cnc(C)s3)CC2)CC1 [Compound I-020]	0.37 nM	310 nM
Cc1ncc(CC(=O)N[C@H]2CC[C@H](CCN3CCN(c4nocc4C(C)(F)F)CC3)CC2)s1 [Compound I-014]	0.2 nM	88 nM
O=C(N[C@H]1CC[C@H](CCN2CCC(c3nccn3-c3ccccn3)CC2)CC1)c1cccc2ncccc12 [Compound I-001]	3.3 nM	> 1700 nM
Cn1ncc(CC(=O)N[C@H]2CC[C@H](CCN3C[C@@H]4C[C@]4(c4cc(C5CC5)on4)C3)CC2)n1 [II-5]	0.71 nM	860 nM
Cc1cc(CC(=O)N[C@H]2CC[C@H](CCN3CCC(c4nocc4C(C)(F)F)CC3)CC2)on1 [Compound I-008]	0.69 nM	350 nM
Cc1cc(C23CC2CN(CC[C@H]2CC[C@H](NC(=O)c4cccc5nn(C)cc45)CC2)C3)no1 (some centres unmarked) [Compound I-030]	2.9 nM	> 1800 nM
Cc1ncc(CC(=O)N[C@H]2CC[C@H](CCN3CCC(c4nocc4C4CC4)CC3)CC2)s1 [Compound I-013]	0.95 nM	230 nM
Cn1cc2c(C(=O)N[C@H]3CC[C@H](CCN4CC=C(c5nocc5C(C)(F)F)CC4)CC3)cccc2n1 [Compound I-024]	0.082 nM	220 nM
Cn1cc2c(C(=O)N[C@H]3CC[C@H](CCN4CC5CC5(c5cc(CF)on5)C4)CC3)cccc2n1 (some centres unmarked) [Compound I-028]	1.9 nM	–
Cc1ncc(CC(=O)N[C@H]2CC[C@H](CCN3CCN(c4nocc4C(C)(F)F)C(C)C3)CC2)s1 (some centres unmarked) [Compound I-019]	0.15 nM	68 nM
Cn1cc2c(C(=O)N[C@H]3CC[C@H](CCN4CCC(c5nocc5C(F)(F)C5CC5)CC4)CC3)cccc2n1 [Compound I-018]	0.22 nM	45 nM
CCc1cc([C@]23C[C@H]2CN(CC[C@H]2CC[C@H](NC(=O)c4cccc5nn(C)cc45)CC2)C3)no1 [Compound I-037]	0.7 nM	290 nM
CCc1cc([C@]23C[C@H]2CN(CC[C@H]2CC[C@H](NC(=O)COc4cnn(C)c4)CC2)C3)no1 [Compound I-048]	0.71 nM	550 nM
Cc1cc(C23CC2CN(CC[C@H]2CC[C@H](NC(=O)Cc4cnc(C)s4)CC2)C3)no1 (some centres unmarked) [Compound I-031]	3.8 nM	> 1800 nM

SMILES	Ki [1]	Ki [2]
O=C(N[C@H]1CC[C@H](CCN2CCC(c3conc3-c3ccccc3)CC2)CC1)c1cccc2ncccc12 [Compound I-005]	1.2 nM	860 nM
CCc1cc([C@]23C[C@H]2CN(CC[C@H]2CC[C@H](NC(=O)Cc4nnc(C)s4)CC2)C3)no1 [Compound I-059]	0.77 nM	550 nM
CCc1cc([C@]23C[C@H]2CN(CC[C@H]2CC[C@H](NC(=O)c4cccnc4C)CC2)C3)no1 [Compound I-047]	1.4 nM	530 nM
CCc1cc([C@]23C[C@H]2CN(CC[C@H]2CC[C@H](NC(=O)Cc4noc(C)n4)CC2)C3)no1 [Compound I-058]	1.3 nM	790 nM
Cc1ncc(CC(=O)N[C@H]2CC[C@H](CCN3CCC(c4nscc4C(C)(F)F)CC3)CC2)s1 [Compound I-012]	1.9 nM	460 nM
Cn1cc2c(C(=O)N[C@H]3CC[C@](F)(CCN4C[C@@H]5C[C@]5(c5cc(C(C)(F)F)on5)C4)CC3)cccc2n1 [II-1]	0.42 nM	> 2300 nM
CCc1cc([C@]23C[C@H]2CN(CC[C@H]2CC[C@H](NC(=O)c4cccn5nccc45)CC2)C3)no1 [Compound I-057]	0.47 nM	230 nM
Cc1ncc(CC(=O)N[C@H]2CC[C@H](CCN3CCC(c4nocc4CC4CC4)CC3)CC2)s1 [Compound I-011]	0.63 nM	380 nM
Cc1ncc(CC(=O)N[C@H]2CC[C@H](CCN3CCC(c4nocc4C(C)(F)F)CC3)CC2)s1 [Compound I-010]	0.65 nM	230 nM
O=C(N[C@H]1CC[C@H](CCN2CCC(c3nocc3-c3ccccc3)CC2)CC1)c1cccc2ncccc12 [Compound I-002]	0.12 nM	32 nM
Cc1ncccc1C(=O)N[C@H]1CC[C@H](CCN2C[C@@H]3C[C@]3(c3cc(C(C)(F)F)on3)C2)CC1 [Compound I-036]	0.25 nM	190 nM
CCn1c(C(=O)N[C@H]2CC[C@H](CCN3C[C@@H]4C[C@]4(c4cc(C(C)(F)F)on4)C3)CC2)cccc1=O [Compound I-038]	0.073 nM	91 nM
Cn1cc2c(C(=O)N[C@H]3CC[C@H](CCN4CCC5CC5(c5cc(C(C)(F)F)on5)C4)CC3)cccc2n1 (some centres unmarked) [Compound I-025]	2.4 nM	1200 nM
Cn1cc2c(C(=O)N[C@H]3CC[C@H](CCN4CCC5(c6nocc6C(C)(F)F)CC5C4)CC3)cccc2n1 (some centres unmarked) [Compound I-021]	4.8 nM	1700 nM
CCc1cc([C@]23C[C@H]2CN(CC[C@H]2CC[C@H](NC(=O)/C=C/c4cnc(C)nc4)CC2)C3)no1 [Compound I-051]	0.3 nM	380 nM
O=C(N[C@H]1CC[C@H](CCN2CCC(c3ccnn3-c3ccccc3)CC2)CC1)c1cccc2ncccc12 [Compound I-006]	4 nM	1100 nM
Cn1cc2c(C(=O)N[C@H]3CC[C@H](CCN4CCC(c5nocc5C(C)(F)F)CC4)CC3)cccc2n1 [Compound I-022]	0.11 nM	170 nM
Cn1cc2c(C(=O)N[C@H]3CC[C@H](CCN4C[C@@H]5C[C@]5(c5cc(C(C)(F)F)on5)C4)CC3)cccc2n1 [Compound I-027]	0.3 nM	> 1800 nM
CC(F)c1cc(C23CC2CN(CC[C@H]2CC[C@H](NC(=O)c4cccc5nn(C)cc45)CC2)C3)no1 (some centres unmarked) [Compound I-033]	0.77 nM	–
